In general, IC50 refers to the concentration at which inhibition is half-maximal. High values mean weaker potency in that assay, low ones greater potency in that assay.

Assay [1] relates to cultured human mast cells (CHMC). The assay is described as follows: CHMC low cell density ionomycin activation: tryptase assay. The class given is cell-based.
Assay [2] shares this test system. The assay is described as follows: CHMC low cell density IgE activation: tryptase assay. The class given is cell-based. Particulars: anti-IgE. The essentials:
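Cultured human mast cells (1000-1500 cells/well, donor-dependent) equilibrated 1 hr at 37° C, then stimulated with anti-IgE for 30 min at 37° C. Tryptase released into the supernatant is measured with a fluorogenic tryptase substrate after 30 min at room temperature.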

Counter-ions that a name gives are not always drawn.

In the case of `Cc1cc(Nc2nc(Nc3cccc(OCC(=O)N4CCNCC4)c3)ncc2F)cc(Cl)c1O` [R945149, N4-(3-Chloro-4-hydroxy-5-methylphenyl)-5-fluoro-N2-[3-(N-piperazino)carbonylmethyleneoxyphenyl]-2,4-pyrimidinediamine], the IC50 was greater than 10 µM in assay [1] and 391 nM in assay [2].

With `COC(=O)COc1cccc(Nc2ncc(F)c(Nc3cc(C)c(OC)c(C)c3)n2)c1` [R945153, N4-(3,5-Dimethyl-4-methoxyphenyl)-5-fluoro-N2-(3-methoxycarbonylmethyleneoxyphenyl)-2,4-pyrimidinediamine], the IC50 in assay [1] turned out to be 6.56 µM; in assay [2] it was 688 nM.

On to `COc1c(C)cc(Nc2nc(Nc3cccc(OCC(=O)N4CCNCC4)c3)ncc2F)cc1C` [R945156, N4-(3,5-Dimethyl-4-methoxyphenyl)-5-fluoro-N2-[3-(N-piperazino)carbonylmethyleneoxyphenyl]-2,4-pyrimidinediamine], for which the IC50 is greater than 10 µM in assay [1] and 787 nM in assay [2].

With `COc1c(C)cc(Nc2nc(Nc3cccc(OCCN4CCNCC4)c3)ncc2F)cc1C` [R945157, N4-(3,5-Dimethyl-4-methoxyphenyl)-5-fluoro-N2-[3-[2-(N-piperazino)ethoxy]phenyl]-2,4-pyrimidinediamine Dihydrochloride Salt], the IC50 in assay [1] is greater than 10 µM; in assay [2], 1480 nM.

For the compound `CON=C(N)COc1ccc(Nc2ncc(F)c(Nc3cccc(O)c3)n2)cc1` [R945167, 5-Fluoro-N4-(3-hydroxyphenyl)-N2-[4-(2-methoxyimino(amino)ethyleneoxy)phenyl]-2,4-pyrimidinediamine], the figures for the IC50 in assay [1] and in assay [2] were greater than 10 µM and 761 nM, respectively.

For `Oc1cccc(Nc2nc(Nc3ccc(OCC4=NCCCN4)cc3)ncc2F)c1` [R945169, 5-Fluoro-N4-(3-hydroxyphenyl)-N2-[4-(1,4,5,6-tetrahydro-2-pyrimidyl)methyleneoxyphenyl]-2,4-pyrimidinediamine], the IC50 in assay [1] was greater than 10 µM; in assay [2], 10000 nM.

Regarding `CNC(=O)COc1ccc(Nc2ncc(F)c(Nc3cccc(O)c3)n2)cc1` [R945170, 5-Fluoro-N4-(3-hydroxyphenyl)-N2-[4-(N-methylamino)carbonylmethyleneoxyphenyl]-2,4-pyrimidinediamine], the IC50 is greater than 10 µM in assay [1] and 661 nM in assay [2].

With `NC(=O)COc1ccc(Nc2nc(Nc3ccc4c(c3)OCCO4)ncc2F)cc1` [R945171, N4-(4-Aminocarbonylmethyleneoxyphenyl)-N2-(3,4-ethylenedioxyphenyl)-5-fluoro-2,4-pyrimidinediamine], the IC50 in assay [1] is greater than 10 µM; in assay [2] it was 1330 nM.

For the compound `N#CCOc1ccc(Nc2nc(Nc3ccc4c(c3)OCCO4)ncc2F)cc1` [R945172, N4-(4-Cyanomethyleneoxyphenyl)-N2-(3,4-ethylenedioxyphenyl)-5-fluoro-2,4-pyrimidinediamine], the IC50 in assay [1] was greater than 10 µM; in assay [2], 1180 nM.

Consider `CNC(=O)COc1ccc(Nc2nc(Nc3ccc4c(c3)OCCO4)ncc2F)cc1` [R945173, N2-(3,4-Ethylenedioxyphenyl)-5-fluoro-N4-(4-methylaminocarbonylmethyleneoxyphenyl)-2,4-pyrimidinediamine], for which the 50% inhibitory concentration (IC50) in assay [1] was greater than 10 µM; in assay [2] it was 1420 nM.

Turning to `CON=C(N)COc1ccc(Nc2nc(Nc3ccc4c(c3)OCCO4)ncc2F)cc1` [R945175, N2-(3,4-Ethylenedioxyphenyl)-5-fluoro-N4-[4-methoxyimino(amino)ethyleneoxyphenyl]-2,4-pyrimidinediamine], the IC50 is greater than 10 µM in assay [1] and 1650 nM in assay [2].

Consider `O=C1CN=C2COc3ccc(Nc4nc(Nc5cccc(O)c5)ncc4F)cc3N12` [R945236, N4-[2,4-Dihydro-1-oxo-4H-imidazo[2,1-c][1,4]benzoxazin-8-yl]-5-fluoro-N2-(3-hydroxyphenyl)-2,4-pyrimidinediamine], for which the half-maximal inhibitory concentration (IC50) is greater than 10 µM in assay [1] and 562 nM in assay [2].

In the case of `CNC(=O)COc1cccc(Nc2ncc(F)c(Nc3cnc4c(c3)OCC(=O)N4)n2)c1` [R945242, 5-Fluoro-N2-(3-methylaminocarbonylmethyleneoxyphenyl)-N4-[2H-pyrido[3,2-b]-1,4-oxazin-3(4H)-one-7-yl]-2,4-pyrimidinediamine], the IC50 is greater than 10 µM in assay [1] and 247 nM in assay [2].

For the compound `CS(=O)(=O)Nc1ccc(Nc2ncc(F)c(Nc3ccc(NS(C)(=O)=O)cc3)n2)cc1` [R950083, N2,N4-Bis[(4-methylsulfonylamino)phenyl]-5-fluoro-2,4-pyrimidinediamine], the IC50 is greater than 10 µM in assay [1] and greater than 10000 nM in assay [2].

As for `CS(=O)(=O)Nc1cccc(Nc2ncc(F)c(Nc3cccc(NS(C)(=O)=O)c3)n2)c1` [R950100], the IC50 was greater than 10 µM in assay [1] and 710 nM in assay [2].

Turning to `Nc1ccc(Nc2ncc(F)c(Nc3ccc(N)cc3)n2)cc1` [R950122, N2,N4-Bis(4-aminophenyl)-5-fluoro-2,4-pyrimidinediamine], the figures for the IC50 in assay [1] and in assay [2] were greater than 10 µM and 3020 nM, respectively.

As for `Nc1cccc(Nc2nc(Nc3cccc(Nc4ncc(F)c(Nc5cccc(N)c5)n4)c3)ncc2F)c1` [R950137, N4-(3-Aminophenyl)-N2-[[N3-[N4-(3-aminophenyl)]-5-fluoro-2,4-pyrimidinediamine]aminophenyl]-5-fluoro-2,4-pyrimidinediamine], the results for the IC50 in assay [1] and in assay [2] were greater than 10 µM and 2230 nM, respectively.

With `O=[N+]([O-])c1ccc(NCCO)c(Nc2ncc(F)c(Nc3cc([N+](=O)[O-])ccc3NCCO)n2)c1` [R950150, N2,N4-Bis(2-hydroxyethyleneamino-5-nitrophenyl)-5-fluoro-2,4-pyrimidinediamine], the IC50 was greater than 10 µM in assay [1] and greater than 10000 nM in assay [2].

Take `O=C(NCCO)c1cc2cc(Nc3ncc(F)c(Nc4ccc5oc(C(=O)NCCO)cc5c4)n3)ccc2o1` [R950167, N2,N4-Bis[2-(2-hydroxyethyleneamoinocarbonyl)-benzofurane-5-yl]-5-fluoro-2,4-pyrimidinediamine]: the IC50 was greater than 10 µM in assay [1] and greater than 10000 nM in assay [2].

With `NCCNC(=O)c1cc2cc(Nc3ncc(F)c(Nc4ccc5oc(C(=O)NCCN)cc5c4)n3)ccc2o1` [R950168, N2,N4-Bis[2-(2-aminoethyleneamoinocarbonyl)-benzofurane-5-yl]-5-fluoro-2,4-pyrimidinediamine], the 50% inhibitory concentration (IC50) in assay [1] was 8.65 µM; in assay [2], 6500 nM.

In the case of `O=C(NCCNCc1ccccc1)c1cc2cc(Nc3ncc(F)c(Nc4ccc5oc(C(=O)NCCNCc6ccccc6)cc5c4)n3)ccc2o1` [R950169, N2,N4-Bis[2-(2-(N-benzylamino)ethyleneamoinocarbonyl)-benzofurane-5-yl]-5-fluoro-2,4-pyrimidinediamine], the concentration for half-maximal inhibition (IC50) in assay [1] worked out at 9.52 µM; in assay [2] it was 1270 nM.

With `CNCCNC(=O)c1cc2cc(Nc3ncc(F)c(Nc4ccc5oc(C(=O)NCCNC)cc5c4)n3)ccc2o1` [R950170, N2,N4-Bis[2-[2-(methylamino)ethyleneaminocarbonyl]-benzofurane-5-yl]-5-fluoro-2,4-pyrimidinediamine], the results for the IC50 in assay [1] and in assay [2] were greater than 10 µM and greater than 10000 nM, respectively.

Turning to `CC(CO)Nc1cccc(Nc2ncc(F)c(Nc3cccc(NC(C)CO)c3)n2)c1` (centres unmarked) [R950171, N2,N4-Bis[3-N-(2-hydroxy-1-methylethyl)aminophenyl]-5-fluoro-2,4-pyrimidinediamine], the IC50 in assay [1] is greater than 10 µM; in assay [2], 585 nM.

Consider `O=C(c1cc2cc(Nc3ncc(F)c(Nc4ccc5oc(C(=O)N6CCOCC6)cc5c4)n3)ccc2o1)N1CCOCC1` [R950172, N2,N4-Bis[2-(N-morpholinocarbonyl)benzofurane-5-yl]-5-fluoro-2,4-pyrimidinediamine], for which the IC50 in assay [1] was greater than 10 µM; in assay [2], 983 nM.

For the compound `O=C(NCCN1CCOCC1)c1cc2cc(Nc3ncc(F)c(Nc4ccc5oc(C(=O)NCCN6CCOCC6)cc5c4)n3)ccc2o1` [R950173, N2,N4-Bis[2-(2-N-morpholinoethyleneamoinocarbonyl)-benzofurane-5-yl]-5-fluoro-2,4-pyrimidinediamine], the IC50 was greater than 10 µM in assay [1] and 2370 nM in assay [2].

As for `Fc1cnc(Nc2cccc(NCCOCc3ccccc3)c2)nc1Nc1cccc(NCCOCc2ccccc2)c1` [R950174, N2,N4-Bis[3-(N-benzyloxyethyleneamino)phenyl]-5-fluoro-2,4-pyrimidinediamine], the figures for the IC50 in assay [1] and in assay [2] were greater than 10 µM and 4620 nM, respectively.

Take `Nc1cccc(Nc2ncc(F)c(Nc3cccc(NCCOCc4ccccc4)c3)n2)c1` [R950175, N2-(3-Aminophenyl)-N4-[3-(N-benzyloxyethyleneamino)phenyl]-5-fluoro-2,4-pyrimidinediamine]: the concentration for half-maximal inhibition (IC50) in assay [1] is greater than 10 µM; in assay [2], 1690 nM.

Regarding `Nc1cccc(Nc2nc(Nc3cccc(NCCOCc4ccccc4)c3)ncc2F)c1` [R950176, N4-(3-Aminophenyl)-N2-[3-(N-benzyloxyethyleneamino)phenyl]-5-fluoro-2,4-pyrimidinediamine], the IC50 was greater than 10 µM in assay [1] and 1340 nM in assay [2].

On to `CCOC(=O)COc1cccc(Nc2ncc(F)c(Nc3cc(Cl)c(O)c(Cl)c3)n2)c1` [R950185, N4-(3,5-Dichloro-4-hydroxyphenyl)-N2-(3-ethoxycarbonylmethyleneoxyphenyl)-5-fluoro-2,4-pyrimidinediamine], for which the half-inhibitory concentration (IC50) in assay [1] was determined as 8.81 µM; in assay [2] it was 1030 nM.

Consider `O=C(COc1cccc(Nc2ncc(F)c(Nc3cc(Cl)c(O)c(Cl)c3)n2)c1)N1CCOCC1` [R950187, N4-(3,5-Dichloro-4-hydroxyphenyl)-5-fluoro-N2-[3-(N-morpholino)carbonylmethyleneoxyphenyl]-2,4-pyrimidinediamine], for which the IC50 in assay [1] is greater than 10 µM; in assay [2], 724 nM.

As to `O=C(COc1cccc(Nc2ncc(F)c(Nc3cc(Cl)c(O)c(Cl)c3)n2)c1)N1CCNCC1` [R950188, N4-(3,5-Dichloro-4-hydroxyphenyl)-5-fluoro-N2-[3-(N-piperazino)carbonylmethyleneoxyphenyl]-2,4-pyrimidinediamine], the IC50 in assay [1] was greater than 10 µM; in assay [2], 2330 nM.

(Values after patent publication US9499493B2, “2,4-pyrimidinediamine compounds and their uses” (Rigel Pharmaceuticals, Inc., priority 2002, dated 2016).)
